# System: non-transgenic N2 C. elegans
# Assay: Motor function in non-transgenic N2 C. elegans
# Assay type: in vivo
# Details: non-transgenic N2 line; FIG. 19 varying doses, FIG. 21 34.8 μM
row,Compound,motor function
1,CCc1ccc(NC(=O)C(Cc2ccccc2)NS(=O)(=O)c2cccc3cccnc23)cc1 (stereo not drawn) [Compound 7],improves motor function

# System: mutant TDP-43 inclusions in human BE-M17 neuroblastoma cells
# Assay: Arsenite-induced TDP-43 inclusion formation in BE-M17 cells
# Assay type: cell-based
# Details: arsenite 0.5 mM, 1 hr, 10 μg/ml
# Text: The inventors transfected human BE-M17 neuroblastoma cells with WT TDP-43, TDP-4386-414 or TDP-43216-414 constructs N-terminally tagged with GFP. Full length WT TDP-43 localized to the nucleus under basal conditions (FIG. 15, WT TDP-43 shown). To investigate TDP-43 aggregation under the stressful conditions, cells were exposed to arsenite, an agent classically used to induce SGs (Biochem Soc Trans, 2002, 30, 963-9; J Cell Biol, 2000, 151, 1257-68; J Cell Biol, 1999, 147, 1431-42; each herein incorporated by reference in its entirety). Arsenite causes stress through multiple mechanisms (Toxicol Appl Pharmacol, 2001, 177, 132-48; herein incorporaed by reference in its entirety). Arsenite directly induces oxidative stress by reacting with oxygen in a reaction similar to the Fenton reaction, and arsenite also uses up glutathione, which causes further oxidative stress (Toxicol Appl Pharmacol, 2001, 177, 132-48; herein incorporaed by reference in its entirety). Upon exposure to arsenite (1 hr) WT TDP-43 remained largely nuclear, but a small amount translocated to the cytoplasm where it formed inclusions (FIG. 15A, right panels, arrows). To determine whether the inclusions co-localized with SGs, we co-labeled the cells with antibodies to SG markers, including TIA-1, eIF3 and poly-A binding protein (PABP) (FIG. 15). […] Co-localization with other SG markers is also observed. […]
row,Compound,formation of inclusions composed of mutant TDP-43 constructs
1,C[C@@H]1C[C@@H]([C@H](O)CC2CC(=O)NC(=O)C2)C(=O)[C@@H](C)C1 [cycloheximide],reversible

# System: TDP-43 inclusions in PC12 cells expressing WT TDP-43::GFP
# Assay: High-throughput screen for inhibition of TDP-43 inclusion formation in inducible TDP-43::GFP PC12 cells (IN Cell Analyzer)
# Details: Rattus norvegicus, PC-12, 18 h, read-out: Inhibition of TDP-43 Inclusion Formation EC50
# Protocol: We generated a Tet-Off inducible PC12 cell line (Clontech; the parent line stably expresses high levels of the Tetracycline binding protein) that is stably transfected with a WT TDP-43::GFP (where the GFP is at the C-terminus). […] The high-throughput screen used the arsenite (50 μM, 18 hrs) treatment protocol, where arsenite was added 1 hr after the test compounds.
# We used the automated GE IN Cell Analyzer 1000 microscope system for high throughput analyses. Test chemicals were added to the cells 48 hrs after induction of TDP-43 (by removal of doxycycline). After another 24 hrs, the cells were fixed and double-stained with DAPI (to detect nuclei). Inclusions present in a collar around the nucleus but not fully co-localized with the DAPI stain (FIG. 1) were identified by the IN-Cell analyzer as inclusions. The computer counted the number of cells (based on DAPI-positive nuclei), TDP-43 levels and inclusions per field. The counts from 6 different fields within a well were averaged to develop a measure of the mean number of inclusions per field. This was repeated for every well in a 384 well plate and every plate in the library.
# PC12 cells are grown in DMEM, 10% NBS/Pen-Strep, 100 μg/ml hygromycin, 50 μM puromycin and 50 μg/ml doxycycline (the latter is removed for TDP-43 induction).
row,EC50 [nM],Compound
1,1500,"COc1c(C)c2c(c(O)c1C/C=C(\C)CCC(=O)O)C(=O)OC2 [Mycophenolic acid, reference compound]"

# Same assay, conditions: read-out: Inhibition of TDP-43 Inclusion Formation EC50; PC12 TDP-43::GFP cells; arsenite 50 μM, 18 hrs; representative values
row,Compound,EC50 [nM]
1,CC(C)(C)c1ccc(S(=O)(=O)Nc2ccc(SCc3nc(OCC(F)(F)F)cc(OCC(F)(F)F)n3)cc2)cc1 [Compound 2-1],152
2,C#CCNCC1(c2ccccc2)CCN(CCCCOC(c2ccc(F)cc2)c2ccc(F)cc2)CC1 [Compound 2-2],290
3,OC1(c2ccccc2)CCN(CCCCOC(c2ccc(F)cc2)c2ccc(F)cc2)CC1 [Compound 2-3],1920
4,Cc1ccc2ncnc(Nc3cccc(Cl)c3)c2c1 [Compound 2-4],10
5,Cc1cc2cc(CCNS(=O)(=O)c3ccc(Cl)cc3)c(=O)[nH]c2cc1C [Compound 2-5],1290
6,COCc1ccc(C(=O)NC(CC(C)C)c2nnc3n2CCN(Cc2cc4ccccc4o2)CC3)o1 (stereo not drawn) [Compound 2-7],11
7,COc1cccc(CN2CCN(C(=O)c3cc4ccccc4[nH]3)CCC2=O)c1 [Compound 2-8],180
8,CCN(CC1CCCN(CCc2ccccc2OC)C1)C(=O)c1cc2ccccc2[nH]1 (stereo not drawn) [Compound 2],74
9,COc1cc(NC(=O)CCC2CCCN(Cc3ccc(F)c(OC)c3)C2)cc(OC)c1 (stereo not drawn) [Compound 3],39
10,COc1ccccc1OCC(=O)NC1CCCN(c2ccc(C(F)(F)F)cn2)C1 (stereo not drawn) [Compound 4],98
11,COc1ccc(C2C(C(=O)Nc3ccccc3OC)=C(C)Nc3nc4ccccc4n32)cc1 (stereo not drawn) [Compound 5],306
12,COc1ccc(NC(=O)C(Cc2ccccc2)NS(=O)(=O)c2cccc3cccnc23)cc1 (stereo not drawn) [Compound 6],15
13,CCc1ccc(NC(=O)C(Cc2ccccc2)NS(=O)(=O)c2cccc3cccnc23)cc1 (stereo not drawn) [Compound 7],139
14,Mithramycin A [reference compound],2000

# System: C. elegans expressing human WT TDP-43 (CK405)
# Assay: Motor function in C. elegans expressing human WT TDP-43
# Assay type: in vivo
# Details: transgenic TDP-43 nematodes, line not specified
# Text: Determining whether compounds delay deterioration of motor function in C. elegans expressing TDP-43 in C. elegans: C. elegans is generally used as a simple in vivo model of disease bridging the gap between in vitro studies and in vivo studies in rodents (J Biol Chem, 2005. 280: 42655-68; J Neurosci, 2009. 29: 9210-8; Neurodegener Dis, 2010. 7: 68-75; each herein incorporated by reference in its entirety). Accordingly, C. elegans lines expressing TDP-43 (WT, G294A and A315T), obtained from Brian Kraemer, can be used to determine whether the indentified compounds ameliorate motor dysfunction associated with TDP-43 expression (J Neurosci, 2010. 30: 16208-19; herein incorporated by reference in its entirety). […] Movement and survival are calculated at adult days 1, 3 and 5, using methods described in the art (see, e.g., J. Neurosci. 2010 December 1, 30(48):16208-19; IEEE Trans Biomed Eng. 2004 October 51(10):1811-20, each herein incorporated by reference in its entirety).
# In one example, eggs (C. elegans expressing A315T TDP-43, line CK426) were plated on agar containing the test compound. On day 4, movement of C. elegans was quantified and moved to plates with fresh compounds. On day 5, movement of C. elegans was again quantified. […]
row,Compound,motor function
1,CCc1ccc(NC(=O)C(Cc2ccccc2)NS(=O)(=O)c2cccc3cccnc23)cc1 (stereo not drawn) [Compound 7],improves motor function

# From US9359363B2, “Identification of compounds that disperse TDP-43 inclusions” (priority 2011, dated 2016)
